Experimental data reported in the CheMixHub viscosity set.
“And” between values parts separate entries of the source, which are not always exact repeats. Equal values may be shown once. ± gives the uncertainty stated by the source.

CC[n+]1ccn(C)c1.COS(=O)(=O)[O-]
101 kPa
Details	viscosity
293.15 K	84.14 ± 2.4 mPa·s
298.15 K	84.3 ± 24 mPa·s and 68.5 ± 4.2 mPa·s
303.15 K	68.7 ± 12 mPa·s and 55.4 ± 3.4 mPa·s and 57.93 ± 2 mPa·s
308.15 K	56.7 ± 5.9 mPa·s and 45.5 ± 2.8 mPa·s
313.15 K	47.6 ± 6.7 mPa·s and 37.9 ± 2.3 mPa·s and 39.54 ± 0.55 mPa·s
323.15 K	28.33 ± 0.49 mPa·s

CCCCCCCCCCCCCCCC
Details	viscosity [mPa·s]
293.15 K, 100 kPa	3.408 ± 0.04
293.15 K, 101 kPa	3.408 ± 0.023
293.15 K, 102 kPa	3.48 ± 0.03
293.2 K, 101.3 kPa	3.507 ± 0.039
298.15 K, 101 kPa	3.002 ± 0.03
303.15 K, 101 kPa	2.703 ± 0.072
303.2 K, 101.3 kPa	2.78 ± 0.031
308.15 K, 101.33 kPa	2.381 ± 0.055
318.15 K, 100 kPa	1.996 ± 0.024
318.15 K, 101 kPa	1.996 ± 0.015
318.15 K, 101.33 kPa	1.92 ± 0.045
318.16 K, 101 kPa	2.039 ± 0.015
323.15 K, 102 kPa	1.85 ± 0.02

CCOCCOCC
101.33 kPa
Details	viscosity [mPa·s]
298.15 K	0.602 ± 0.017
308.15 K	0.522 ± 0.015

CCCCCCCCCC(=O)OC
100 kPa
Details	viscosity [mPa·s]
293.15 K	2.115 ± 0.046
298.15 K	1.919 ± 0.12
303.15 K	1.745 ± 0.11
318.15 K	1.345 ± 0.081
323.15 K	1.243 ± 0.075

CC(C)C(=O)O
viscosity [mPa·s]
Details	293.15 K	301.15 K	302.15 K	303.15 K	305.15 K	308.15 K	311.15 K	313.15 K	315.15 K
101 kPa	–	1.168 ± 0.0096	1.148 ± 0.007	–	1.099 ± 0.0067	1.047 ± 0.0064	1.008 ± 0.0062	0.9841 ± 0.0061	0.9512 ± 0.0082
101.33 kPa	1.326 ± 0.013	–	–	1.12 ± 0.029	–	–	–	1.004 ± 0.01	–

CC(=O)OCc1ccccc1
Details	viscosity [mPa·s]
323.15 K, 101.33 kPa	1.23 ± 0.18

CCCCCCCCCCCCCC[P+](CCCC)(CCCC)CCCC.CCCCCCCCCCCCc1ccccc1S(=O)(=O)[O-]
101 kPa
Details	viscosity [mPa·s]
313.15 K	1480 ± 110
323.15 K	750 ± 46

CCCC[N+]1(C)CCCCC1.O=S(=O)([N-]S(=O)(=O)C(F)(F)F)C(F)(F)F
Details	viscosity [mPa·s]
298.15 K, 101 kPa	178.5 ± 8.6

ClC(Cl)Cl
Details	viscosity
293.15 K, 101.33 kPa	0.5659 ± 0.016 mPa·s
293.16 K, 101 kPa	0.563 ± 0.015 mPa·s
298 K, 101 kPa	0.5427 ± 0.0079 mPa·s
298 K, 101.33 kPa	0.538 ± 0.007 mPa·s
298.16 K, 101 kPa	0.542 ± 0.014 mPa·s
303 K, 101.3 kPa	0.5254 ± 0.019 mPa·s and 0.5249 ± 0.0097 mPa·s
303 K, 101.33 kPa	0.517 ± 0.007 mPa·s
303.15 K, 101.3 kPa	0.5129 ± 0.0036 mPa·s and 0.5129 ± 0.051 mPa·s and 0.5033 ± 0.0094 mPa·s
303.15 K, 101.33 kPa	0.514 ± 0.1 mPa·s and 0.471 ± 0.014 mPa·s
303.16 K, 101 kPa	0.514 ± 0.014 mPa·s
303.75 K, 101 kPa	0.5393 ± 0.014 mPa·s
308 K, 101 kPa	0.4881 ± 0.0073 mPa·s
308.15 K, 101 kPa	0.482 ± 0.005 mPa·s
308.15 K, 101.33 kPa	0.452 ± 0.013 mPa·s and 0.5065 ± 0.0051 mPa·s and 0.485 ± 0.004 mPa·s
311 K, 101.3 kPa	0.4893 ± 0.018 mPa·s and 0.4893 ± 0.0092 mPa·s
313 K, 101.33 kPa	0.479 ± 0.006 mPa·s
313.15 K, 101 kPa	0.472 ± 0.01 mPa·s and 0.4891 ± 0.013 mPa·s and 0.557 ± 0.015 mPa·s
318 K, 101 kPa	0.4487 ± 0.0068 mPa·s
318.15 K, 101.33 kPa	0.442 ± 0.004 mPa·s
319 K, 101.3 kPa	0.4566 ± 0.017 mPa·s and 0.4571 ± 0.0087 mPa·s
323 K, 101.33 kPa	0.447 ± 0.006 mPa·s
323.15 K, 101 kPa	0.491 ± 0.013 mPa·s
323.15 K, 101.33 kPa	0.4473 ± 0.0045 mPa·s
